# Data reported in PMC6701825, “Antiproliferative and Antimigratory Effects of a Novel YAP–TEAD Interaction Inhibitor Identified Using in Silico Molecular Docking” (Journal of Medicinal Chemistry, 2019).
# Key:
# [1] = tested on: TEAD-independent GAL4 reporter vector; test: TEAD-independent reporter vector basal activity (Supplement Figure 10A); assay type: cell-based; details: 6 hours
# From the text: (§1) TEAD proteins (TEAD1–4) display a high degree of sequence conservation in residues that create the hydrophobic pocket that is essential for YAP binding.[51] YAP proteins also display a high degree of conservation in residues that interact with this pocket.[51] We therefore tested whether CPD3.1 was able to inhibit YAP-induced activity of TEAD1, TEAD2, TEAD3, and TEAD4. To quantify the effect of CPD3.1 on the activity of each individual TEAD paralog, while excluding interference from endogenously expressed TEAD1–4 proteins, we expressed each TEAD paralog (TEAD1–4) fused to the yeast GAL4 DNA-binding domain. Cells were transfected with the GAL4–TEAD expression vector together with a secreted nanoluciferase reporter gene vector under control of a promoter containing five GAL4 DNA-binding elements. This system allows us to study the effect of CPD3.1 on the activity of each individual TEAD protein in isolation, without interference from endogenously expressed transcription factors. In addition, the cells were co-transfected with a YAP expression vector to activate the GAL4–TEAD fusion-dependent transcription (see Supplement Figure 9). Basal activities of TEAD1, TEAD2, TEAD3, and TEAD4 were inhibited by CPD3.1 (Figure 7A–D). This likely reflects the inhibition of TEAD activity driven by endogenous expression of YAP. […]
# TEAD2 = molecular target: T1, TEAD2 (Homo sapiens, UniProt Q15562); test: GAL4-TEAD2 fusion / 5xGAL4-secNLUC reporter in HeLa cells; assay type: cell-based; details: 100 μM, 6 h
# T1 construct: #18881 (FLAG-YAP); host or cells: HeLa
# T1 sequence (Q15562 whole entry, the tested form may be a part): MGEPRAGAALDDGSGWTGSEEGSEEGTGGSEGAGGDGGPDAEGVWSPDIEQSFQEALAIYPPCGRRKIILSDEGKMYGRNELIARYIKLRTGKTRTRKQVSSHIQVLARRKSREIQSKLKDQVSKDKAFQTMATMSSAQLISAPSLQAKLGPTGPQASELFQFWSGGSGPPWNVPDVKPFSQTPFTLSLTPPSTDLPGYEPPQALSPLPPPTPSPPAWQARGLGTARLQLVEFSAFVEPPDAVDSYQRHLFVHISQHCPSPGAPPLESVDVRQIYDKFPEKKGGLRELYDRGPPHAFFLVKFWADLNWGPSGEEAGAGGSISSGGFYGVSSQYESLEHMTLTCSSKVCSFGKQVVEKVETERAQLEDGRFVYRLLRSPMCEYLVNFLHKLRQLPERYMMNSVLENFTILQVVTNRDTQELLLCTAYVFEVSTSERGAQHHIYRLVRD
# From the text: as §1, with “7A–D).” for “7A–D). This likely reflects the inhibition of TEAD activity driven by endogenous expression of YAP.”
# Figure 7 Compound 3.1 inhibits TEAD1, TEAD2, TEAD3, and TEAD4 activities. […] Secreted nano-luciferase activity was quantified in the conditioned media. […]
# HuVSMC = test: Real-time IncuCyte scratch wound migration assay in HuVSMC; assay type: cell-based, human; details: HuVSMC, 0.25, 0.5, 2, and 10 μM
# Procedure: Figure 9 Compound 3.1 inhibits TEAD target gene expression, cell proliferation, and cell migration in RaVSMCs. RaVSMCs stably transduced with TEAD-NLUC (A) or transiently transfected with CCN1-LUC or CTGF-LUC were treated with the indicated concentrations of compound 3.1 for 6 hr. Cell conditioned media (A) or cell lysates (B−C) were assayed for nanoluciferase or fire-fly luciferase activity, respectively. VSMC were treated with 60 μM compound 3.1 for 6 h (n = 3). Total RNA was analyzed for mRNA levels of TEAD-target genes (D) or constitutive housekeeping genes (E) by qRT-PCR. VSMC were treated with indicated concentrations of compound 3.1 for 16 hr (n = 4). Total cell lysates were analyzed for CCN1 protein expression by Western blotting (F). RaVSMCs (G) or HuVSMC (H) were treated with indicated concentrations of compound 3.1 for 18 h followed by labeling in 10 μM EdU for a further 6 h (n = 4). RaVSMCs (I) or HuVSMC (J) were treated with indicated concentrations of compound 3.1 and cell migration quantified using IncuCyte real time migration assay (n = 4).
# Cell proliferation was measured using the Click-iT EdU 488 assay (Sigma-Aldrich). […] Fluorescent images of at least three fields of view per well were counted using ImageJ software. […] Relative wound confluence was calculated using the Cell Migration Image analysis module of the IncuCyte ZOOM software.
# RaVSMCs = test: EdU proliferation assay in RaVSMCs; assay type: cell-based, rat; details: 18 h then 6 h 10 μM EdU
# Procedure: Cell proliferation was measured using the Click-iT EdU 488 assay (Sigma-Aldrich). Briefly, the cells were treated with indicated concentrations of compounds for 24 h with the last 4 h being in the presence of 10 μM EdU. The cells were fixed in 4% formaldehyde and stained for EdU incorporation, following the kit’s standard protocol. The cells were counterstained with Hoechst 33342 nucleic acid for 20 min. Fluorescent images of at least three fields of view per well were counted using ImageJ software. Real-time analysis of cell migration was performed using an IncuCyte ZOOM live cell imaging system (Essen BioScience) according to the manufacturer’s instructions. Briefly, the cells were seeded (1.2 × 10^4 cells/well for HeLa cells, 1.5 × 10^4 cells/well for RaVSMCs, and 1 × 10^4 cells/well) into ImageLock 96-well plates. After 36 h, the cells were pretreated overnight with indicated concentrations of compounds. The wells were scratched using a WoundMaker tool, and the media were replaced containing test compounds. Phase contrast images of cell migration into the wounded area were acquired hourly for 24 h. Relative wound confluence was calculated using the Cell Migration Image analysis module of the IncuCyte ZOOM software.
SMILES,basal activity of a TEAD-independent GAL4 reporter vector [1],basal activity of GAL4-TEAD2 (TEAD2),YAP-stimulated activity of GAL4-TEAD2 (TEAD2; YAP overexpression),cell migration (scratch wound) (HuVSMC),cell proliferation (EdU incorporation) (RaVSMCs)
Cc1ccc2c(c1)c1c3n2CCNC3CCC1 (centres unmarked) [CPD3.1],did not inhibit the basal activity,inhibited,significantly inhibited,inhibited in a dose-dependent manner,–
Cc1ccc2c(c1)c1c3n2CCN(CC(O)CN2CCN(C(=O)c4ccco4)CC2)C3CCC1 (centres unmarked) [CPD3],–,–,–,–,dose-dependently inhibited cell proliferation
